Results from patent US4868176A, “Novel imidazobenzodiazepines” (Roussel Uclaf, priority 1987, dated 1989).

Tested on: leptazol induced seizures in mice
Experiment: potentiation of the threshold of leptazol induced seizures in mice
Assay type: in vivo
Details: ip
Method: Potentiation of the threshold of leptazol induced seizures in mice by active compounds was measured by the method of Lichfiel et al (J. Pharmacol. Exp. Ther. (1949) Vol. 96 Page. 99).

`CN1Cc2c(C(=O)C3CC3)ncn2-c2ccccc2C1=O` [Compound 1, 3-(5,6-dihydro-5-methyl-6-oxo-4H-imidazo[1,5a][1,4]benzodiazepinyl)-cyclopropylmethanone] gave an ED50 (Mus musculus) of 1 to 2 mg/kg.
With `CN1Cc2c(C(=O)C3CC3)ncn2-c2ccc(Cl)cc2C1=O` [Compound 2, (8-Chloro-5,6-dihydro-5-methyl-6-oxo-4H-imidazo[1,5-a][1,4]benzodiazepin-3-yl)-cyclopropylmethanone] the “Leptazol Seizures ED50” value was “Not active”.
